Data from US20130150363A1, “Method of Treating Cancer Using a cMET and AXL Inhibitor and an ErbB Inhibitor” (GlaxoSmithKline, priority 2008, published 2013).

Experiments:
Assay type in all cases: cell-based
[1] = tested on: NCI-H1573 lung carcinoma cells; assay: Cell growth inhibition (CellTiter-Glo), NCI-H1573; details: Homo sapiens, NCI-H1573, 72 h, 3 days
Excerpt: (§1) Esophageal carcinoma cell line OE33 was purchased from ECACC European Collection of Cell Cultures (UK). Breast cancer cell line JIMT-1 and gastric carcinoma cell line MKN-45 were purchased from Deutsche Sammlung von Mikroorganismen and Zellkulturen GmbH (Germany); KPL-4, a human breast cancer cell line was kindly provided by Prof. J Kurebayashi (Kawasaki Medical School, Kurashiki, Japan). […] The LICR-LON-HN5 head and neck carcinoma cell line (HN5) was a gift from the Institute of Cancer Research, Surrey, U.K. HN5C12 was developed by single-cell cloning of HN5 followed by exposure to increasing concentrations of lapatinib. […] Cell growth inhibition was determined via CellTiter-Glo cell viability assays. […] BT474-J4 and HN5C12 were washed with PBS and plated in their culture media without lapatinib. […] ATP levels were determined by adding Cell Titer Glo0 (Promega), incubating for 20 minutes then the luminescent signal was read on the SpectraMax M5 plate with a 0.5 second integration time. Cell growth was calculated relative to vehicle (DMSO) treated control wells. […] Excess Over Highest Single Agent (EOHSA) is defined as a statistically significant improvement in the combination compared to the component monotherapies. […] Analysis was conducted using two-factor analysis of variance with interaction (model terms were dose of drug A, dose of drug B, and interaction between doses of drug A and B), followed by linear contrasts between each combination group and corresponding monotherapies. Analysis was conducted using SAS (version 9, provided by SAS Institute, Cary, N.C.). EOHSA at each dose was calculated as the minimum difference in average % inhibition between the combination and each monotherapy, from the appropriate ANOVA contrast. Since there are many comparisons for the % inhibition endpoint, p-value adjustment for multiple comparisons was performed. Hommel's procedure was implemented in order to improve the power while retaining […] Error Rate (FWE) control by using a sequentially rejective method. The p-values for both synergy and antagonism were calculated using this adjustment.

[2] = tested on: NCI-H1993 lung carcinoma cells; assay: Cell growth inhibition (CellTiter-Glo), NCI-H1993; details: Homo sapiens, NCI-H1993, 72 h, 3 days
Excerpt: (§2) Esophageal carcinoma cell line OE33 was purchased from ECACC European Collection of Cell Cultures (UK). Breast cancer cell line JIMT-1 and gastric carcinoma cell line MKN-45 were purchased from Deutsche Sammlung von Mikroorganismen and Zellkulturen GmbH (Germany); KPL-4, a human breast cancer cell line was kindly provided by Prof. J Kurebayashi (Kawasaki Medical School, Kurashiki, Japan). […] The LICR-LON-HN5 head and neck carcinoma cell line (HN5) was a gift from the Institute of Cancer Research, Surrey, U.K. HN5C12 was developed by single-cell cloning of HN5 followed by exposure to increasing concentrations of lapatinib. […] Cell growth inhibition was determined via CellTiter-Glo cell viability assays. […] BT474-J4 and HN5C12 were washed with PBS and plated in their culture media without lapatinib. […] ATP levels were determined by adding Cell Titer Glo0 (Promega), incubating for 20 minutes then the luminescent signal was read on the SpectraMax M5 plate with a 0.5 second integration time. Cell growth was calculated relative to vehicle (DMSO) treated control wells. […] y=([…]) where A is the minimum response (ymin), B is the maximum response (ymax), c is the inflection point of the curve (EC50), d is the Hill coefficient, and x is the log10 compound concentration (moles/L). CI values were calculated with the interpolated IC50 values and the mutually non-exclusive equation derived by Chou and […](a)+Db/IC50(b)+(Da×Db)/(IC50(a)×IC50(b)) where IC50(a) is the IC50 of the inhibitor A; IC50(b) is the IC50 for the inhibitor B; […] Excess Over Highest Single Agent (EOHSA) is defined as a statistically significant improvement in the combination compared to the component monotherapies. […] See Borisy et al. (2003) or Hung et al. (1993) for examples and discussion. Analysis was conducted using two-factor analysis of variance with interaction (model terms were dose of drug A, dose of drug B, and interaction between doses of drug A and B), followed by linear contrasts between each combination group and corresponding monotherapies. Analysis was conducted using SAS (version 9, provided by SAS Institute, Cary, N.C.). EOHSA at each dose was calculated as the minimum difference in average % inhibition between the combination and each monotherapy, from the appropriate ANOVA contrast. Since there are many comparisons for the % inhibition endpoint, p-value adjustment for multiple comparisons was performed. Hommel's procedure was implemented in order to improve the power while retaining […] Error Rate (FWE) control by using a sequentially rejective method. The p-values for both synergy and antagonism were calculated using this adjustment.

[3] = tested on: A431 epidermal carcinoma cells; assay: Cell growth inhibition (CellTiter-Glo), A431; details: Homo sapiens, A-431, 72 h, 3 days
Excerpt: as §2

[4] = tested on: SCC15 head and neck squamous cell carcinoma cells; assay: Cell growth inhibition (CellTiter-Glo), SCC15; details: Homo sapiens, SCC-15, 72 h, 3 days
Excerpt: as §1

[5] = tested on: NCI-H2342 lung carcinoma cells; assay: Cell growth inhibition (CellTiter-Glo), NCI-H2342; details: Homo sapiens, NCI-H2342, 72 h, 3 days
Excerpt: as §2

[6] = tested on: Detroit 562 head and neck squamous cell carcinoma cells; assay: Cell growth inhibition (CellTiter-Glo), Detroit 562; details: Homo sapiens, Detroit 562, 72 h, 3 days
Excerpt: as §2

[7] = tested on: HN5C12 (HN5C2) lapatinib resistant head and neck carcinoma cells; assay: Cell growth inhibition (CellTiter-Glo), HN5C12; details: Homo sapiens, 72 h, 3 days
Excerpt: as §2

[8] = tested on: HN5 head and neck carcinoma cells; assay: Cell growth inhibition (CellTiter-Glo), HN5; details: Homo sapiens, 72 h, 3 days
Excerpt: as §2

[9] = tested on: NCI-H596 lung carcinoma cells; assay: Cell growth inhibition (CellTiter-Glo), NCI-H596; details: Homo sapiens, NCI-H596, 72 h, 3 days
Excerpt: as §2

[10] = tested on: SCC12 head and neck squamous cell carcinoma cells; assay: Cell growth inhibition (CellTiter-Glo), SCC12; details: Homo sapiens, SCC12, 72 h, 3 days
Excerpt: as §2

C#Cc1cccc(Nc2ncnc3cc(OCCOC)c(OCCOC)cc23)c1 [Erlotinib, N-(3-ethynylphenyl)-6,7-bis{[2-(methyloxy)ethyl]oxy}-4-quinazolinamine]
IC50 ([1]; lung_H1573, +HGF (2 ng/mL)): > 10 µM | IC50 ([1]; lung_H1573, −HGF): > 10 µM | IC50 ([2]; lung_H1993, +HGF (2 ng/mL)): > 10 µM | IC50 ([2]; lung_H1993, −HGF): 8.13 µM | IC50 ([3]; skin_A431, +HGF (2 ng/mL)): > 10 µM | IC50 ([3]; skin_A431, −HGF): 3.22 µM | IC50 ([4]; hn_SCC15, +HGF (2 ng/mL)): 7.7 µM | IC50 ([4]; hn_SCC15, −HGF): 1.62 µM | IC50 ([5]; lung_H2342, +HGF (2 ng/mL)): > 10 µM | IC50 ([5]; lung_H2342, −HGF): > 10 µM | IC50 ([6]; hn_Detroit562, +HGF (2 ng/mL)): > 10 µM | IC50 ([6]; hn_Detroit562, −HGF): > 10 µM | IC50 ([7]; hn_HN5C2, +HGF (2 ng/mL)): > 10 µM | IC50 ([7]; hn_HN5C2, −HGF): > 10 µM | IC50 ([8]; hn_HN5, +HGF (2 ng/mL)): > 10 µM | IC50 ([8]; hn_HN5, −HGF): 6.72 µM | IC50 ([9]; lung_H596, +HGF (2 ng/mL)): > 10 µM | IC50 ([9]; lung_H596, −HGF): > 10 µM | IC50 ([10]; hn_SCC12, +HGF (2 ng/mL)): > 10 µM | IC50 ([10]; hn_SCC12, −HGF): > 10 µM

CS(=O)(=O)CCNCc1ccc(-c2ccc3ncnc(Nc4ccc(OCc5cccc(F)c5)c(Cl)c4)c3c2)o1 [Lapatinib, N-(3-chloro-4-{[(3-fluorophenyl)methyl]oxy}phenyl)-6-[5-({[2-(methylsulfonyl)ethyl]amino}methyl)-2-furanyl]-4-quinazolinamine]
IC50 ([1]; lung_H1573, +HGF (2 ng/mL)): > 10 µM | IC50 ([1]; lung_H1573, −HGF): 9.83 µM | IC50 ([2]; lung_H1993, +HGF (2 ng/mL)): > 10 µM | IC50 ([2]; lung_H1993, −HGF): > 10 µM | IC50 ([3]; skin_A431, +HGF (2 ng/mL)): 4.6 µM | IC50 ([3]; skin_A431, −HGF): 2.19 µM | IC50 ([4]; hn_SCC15, +HGF (2 ng/mL)): 3.81 µM | IC50 ([4]; hn_SCC15, −HGF): 1.08 µM | IC50 ([5]; lung_H2342, +HGF (2 ng/mL)): 6.64 µM | IC50 ([5]; lung_H2342, −HGF): 6.81 µM | IC50 ([6]; hn_Detroit562, +HGF (2 ng/mL)): 4.64 µM | IC50 ([6]; hn_Detroit562, −HGF): 4.02 µM | IC50 ([7]; hn_HN5C2, +HGF (2 ng/mL)): 3.85 µM | IC50 ([7]; hn_HN5C2, −HGF): 4.12 µM | IC50 ([8]; hn_HN5, +HGF (2 ng/mL)): 3.69 µM | IC50 ([8]; hn_HN5, −HGF): 2.37 µM | IC50 ([9]; lung_H596, +HGF (2 ng/mL)): > 10 µM | IC50 ([9]; lung_H596, −HGF): > 10 µM | IC50 ([10]; hn_SCC12, +HGF (2 ng/mL)): > 10 µM | IC50 ([10]; hn_SCC12, −HGF): > 10 µM
